# From publication PMC9506414, “Novel 2,6,9-Trisubstituted Purines as Potent CDK Inhibitors Alleviating Trastuzumab-Resistance of HER2-Positive Breast Cancers” (Pharmaceuticals, 2022)
# Key:
# Test in all cases: Kinome-wide inhibition profiling
# Type in all cases: biochemical
# [1] = target: T1, MAPKAPK2 (Homo sapiens, UniProt P49137)
# T1 construct: purchased Reaction Biology Corp
# Experimental: (§1) In vitro CDK12/cyclinK assays for all compounds and in vitro kinome-wide inhibition profiling of 30d at 10 μM were performed by a CRO company (Reaction Biology Corp., San Diego, CA, USA).
# [2] = target: T2, BMPR1B (Homo sapiens, UniProt O00238)
# T2 construct: purchased Reaction Biology Corp
# Experimental: as §1
# [3] = target: T3, PASK (Homo sapiens, UniProt Q96RG2)
# T3 construct: purchased Reaction Biology Corp
# Experimental: as §1
# [4] = target: T4, MAP4K4 (Homo sapiens, UniProt O95819)
# T4 construct: purchased Reaction Biology Corp
# Experimental: as §1
# [5] = target: T5, BRAF (Homo sapiens, UniProt P15056)
# T5 construct: purchased Reaction Biology Corp
# Experimental: as §1
# [6] = target: T6, MUSK (Homo sapiens, UniProt O15146)
# T6 construct: purchased Reaction Biology Corp
# Experimental: as §1
# [7] = target: T7, IKK-epsilon (Homo sapiens, UniProt Q14164)
# T7 construct: purchased Reaction Biology Corp
# Experimental: as §1
# [8] = target: T8, MAPKAPK5 (Homo sapiens, UniProt Q8IW41)
# T8 construct: purchased Reaction Biology Corp
# Experimental: as §1
# [9] = target: T9, EPHA2 (Homo sapiens, UniProt P29317)
# T9 construct: purchased Reaction Biology Corp
# Experimental: as §1
# [10] = target: T10, YSK4 (Homo sapiens, UniProt Q56UN5)
# T10 construct: purchased Reaction Biology Corp
# Experimental: as §1
# [11] = target: T11, TSSK2 (Homo sapiens, UniProt Q96PF2)
# T11 construct: purchased Reaction Biology Corp
# Experimental: as §1
# [12] = target: T12, MAK (Homo sapiens, UniProt P20794)
# T12 construct: purchased Reaction Biology Corp
# Experimental: as §1
# [13] = target: T13, EGFR (Homo sapiens, UniProt P00533)
# T13 construct: purchased Reaction Biology Corp
# Experimental: as §1
# [14] = target: T14, BLK (Homo sapiens, UniProt P51451)
# T14 construct: purchased Reaction Biology Corp
# Experimental: as §1
# [15] = target: T15, NEK11 (Homo sapiens, UniProt Q8NG66)
# T15 construct: purchased Reaction Biology Corp
# Experimental: as §1
# [16] = target: T16, SRPK2 (Homo sapiens, UniProt P78362)
# T16 construct: purchased Reaction Biology Corp
# Experimental: as §1
# [17] = target: T17, JAK2 (Homo sapiens, UniProt O60674)
# T17 construct: purchased Reaction Biology Corp
# Experimental: as §1
# [18] = target: T18, MEK5 (Homo sapiens, UniProt Q13163)
# T18 construct: purchased Reaction Biology Corp
# Experimental: as §1
# [19] = target: T19, CDC7/DBF4 (Homo sapiens, UniProt O00311)
# T19 construct: purchased Reaction Biology Corp
# Experimental: as §1
# [20] = target: T20, YSK1 (Homo sapiens, UniProt O00506)
# T20 construct: purchased Reaction Biology Corp
# Experimental: as §1
# [21] = target: T21, ERBB2 (Homo sapiens, UniProt P04626)
# T21 construct: purchased Reaction Biology Corp
# Experimental: as §1
# [22] = target: T22, CSNK1G1 (Homo sapiens, UniProt Q9HCP0)
# T22 construct: purchased Reaction Biology Corp
# Experimental: as §1
# [23] = target: T23, JNK3 (Homo sapiens, UniProt P53779)
# T23 construct: purchased Reaction Biology Corp
# Experimental: as §1
# [24] = target: T24, MST1R (Homo sapiens, UniProt Q04912)
# T24 construct: purchased Reaction Biology Corp
# Experimental: as §1
# [25] = target: T25, KSR2 (Homo sapiens, UniProt Q6VAB6)
# T25 construct: purchased Reaction Biology Corp
# Experimental: as §1
# [26] = target: T26, MINK (Homo sapiens, UniProt Q8N4C8)
# T26 construct: purchased Reaction Biology Corp
# Experimental: as §1
# [27] = target: T27, ITK (Homo sapiens, UniProt Q08881)
# T27 construct: purchased Reaction Biology Corp
# Experimental: as §1
# [28] = target: T28, MAP3K1 (Homo sapiens, UniProt Q13233)
# T28 construct: purchased Reaction Biology Corp
# Experimental: as §1
# [29] = target: T29, CDK6/cyclinD1 (Homo sapiens, UniProt Q00534)
# T29 construct: purchased Reaction Biology Corp
# Experimental: as §1
# [30] = target: T30, CAMK2a (Homo sapiens, UniProt Q9UQM7)
# T30 construct: purchased Reaction Biology Corp
# Experimental: as §1
# [31] = target: T31, HIPK2 (Homo sapiens, UniProt Q9H2X6)
# T31 construct: purchased Reaction Biology Corp
# Experimental: as §1
# [32] = target: T32, TLK1 (Homo sapiens, UniProt Q9UKI8)
# T32 construct: purchased Reaction Biology Corp
# Experimental: as §1
# [33] = target: T33, PKN3 (Homo sapiens, UniProt Q6P5Z2)
# T33 construct: purchased Reaction Biology Corp
# Experimental: as §1
# [34] = target: T34, BMX (Homo sapiens, UniProt P51813)
# T34 construct: purchased Reaction Biology Corp
# Experimental: as §1
# [35] = target: T35, TGFBR2 (Homo sapiens, UniProt P37173)
# T35 construct: purchased Reaction Biology Corp
# Experimental: as §1
# [36] = target: T36, TESK2 (Homo sapiens, UniProt Q96S53)
# T36 construct: purchased Reaction Biology Corp
# Experimental: as §1
# [37] = target: T37, CLK2 (Homo sapiens, UniProt P49760)
# T37 construct: purchased Reaction Biology Corp
# Experimental: as §1
# [38] = target: T38, YANK3 (Homo sapiens, UniProt Q86UX6)
# T38 construct: purchased Reaction Biology Corp
# Experimental: as §1
# [39] = target: T39, PRKCE (Homo sapiens, UniProt Q02156)
# T39 construct: purchased Reaction Biology Corp
# Experimental: as §1
# [40] = target: T40, FGFR2 (Homo sapiens, UniProt P21802)
# T40 construct: purchased Reaction Biology Corp
# Experimental: as §1
# [41] = target: T41, FAK (Homo sapiens, UniProt Q05397)
# T41 construct: purchased Reaction Biology Corp
# Experimental: as §1
# [42] = target: T42, P38-beta (Homo sapiens, UniProt Q15759)
# T42 construct: purchased Reaction Biology Corp
# Experimental: as §1
# [43] = target: T43, FLT3 (Homo sapiens, UniProt P36888)
# T43 construct: purchased Reaction Biology Corp
# Experimental: as §1
# [44] = target: T44, FGFR3 (Homo sapiens, UniProt P22607)
# T44 construct: purchased Reaction Biology Corp
# Experimental: as §1
# T12 sequence (P20794 whole entry): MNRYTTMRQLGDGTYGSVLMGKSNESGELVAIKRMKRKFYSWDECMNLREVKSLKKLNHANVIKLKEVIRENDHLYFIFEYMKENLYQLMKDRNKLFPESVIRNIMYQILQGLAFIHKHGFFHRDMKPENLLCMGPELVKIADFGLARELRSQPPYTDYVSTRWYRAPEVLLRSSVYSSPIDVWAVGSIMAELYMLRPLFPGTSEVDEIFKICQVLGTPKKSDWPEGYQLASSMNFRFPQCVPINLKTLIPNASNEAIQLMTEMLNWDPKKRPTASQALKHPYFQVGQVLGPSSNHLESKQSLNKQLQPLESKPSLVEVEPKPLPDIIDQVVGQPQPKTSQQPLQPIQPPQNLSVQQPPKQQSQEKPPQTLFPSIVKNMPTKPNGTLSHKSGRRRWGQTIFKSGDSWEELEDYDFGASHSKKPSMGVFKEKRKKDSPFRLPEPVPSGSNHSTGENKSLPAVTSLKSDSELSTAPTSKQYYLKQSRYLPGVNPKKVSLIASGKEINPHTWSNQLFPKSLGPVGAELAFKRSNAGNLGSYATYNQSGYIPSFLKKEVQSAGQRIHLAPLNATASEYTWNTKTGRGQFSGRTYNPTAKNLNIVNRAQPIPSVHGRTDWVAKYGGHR
# T13 sequence (P00533 25-1210): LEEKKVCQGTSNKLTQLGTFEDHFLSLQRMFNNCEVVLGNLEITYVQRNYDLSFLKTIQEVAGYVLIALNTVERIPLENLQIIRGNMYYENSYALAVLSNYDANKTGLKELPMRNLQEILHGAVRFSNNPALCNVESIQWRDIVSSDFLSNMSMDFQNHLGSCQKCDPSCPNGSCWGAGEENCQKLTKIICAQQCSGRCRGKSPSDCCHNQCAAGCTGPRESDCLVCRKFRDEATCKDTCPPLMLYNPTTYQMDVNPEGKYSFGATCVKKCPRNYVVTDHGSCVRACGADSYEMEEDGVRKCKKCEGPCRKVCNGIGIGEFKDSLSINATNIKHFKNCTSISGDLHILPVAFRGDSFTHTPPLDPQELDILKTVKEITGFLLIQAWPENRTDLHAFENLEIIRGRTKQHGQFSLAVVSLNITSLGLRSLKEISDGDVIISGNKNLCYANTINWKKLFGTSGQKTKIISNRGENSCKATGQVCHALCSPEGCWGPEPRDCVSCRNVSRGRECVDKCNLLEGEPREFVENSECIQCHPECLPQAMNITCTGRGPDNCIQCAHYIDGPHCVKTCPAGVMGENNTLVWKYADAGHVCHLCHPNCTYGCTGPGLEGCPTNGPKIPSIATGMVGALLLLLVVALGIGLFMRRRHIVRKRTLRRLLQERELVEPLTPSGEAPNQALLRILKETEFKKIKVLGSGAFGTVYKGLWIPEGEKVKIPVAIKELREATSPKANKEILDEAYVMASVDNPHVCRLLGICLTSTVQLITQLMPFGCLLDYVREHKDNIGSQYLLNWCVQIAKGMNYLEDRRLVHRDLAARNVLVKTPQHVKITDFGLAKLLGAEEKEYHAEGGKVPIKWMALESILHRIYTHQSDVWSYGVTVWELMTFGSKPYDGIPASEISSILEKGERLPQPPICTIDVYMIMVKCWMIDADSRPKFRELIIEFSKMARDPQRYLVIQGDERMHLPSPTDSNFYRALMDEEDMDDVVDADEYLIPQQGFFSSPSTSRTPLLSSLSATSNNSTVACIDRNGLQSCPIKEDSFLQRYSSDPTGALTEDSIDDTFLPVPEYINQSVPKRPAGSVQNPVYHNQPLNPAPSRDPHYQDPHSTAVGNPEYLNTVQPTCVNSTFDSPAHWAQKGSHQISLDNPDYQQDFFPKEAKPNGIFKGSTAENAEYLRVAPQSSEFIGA
# T22 sequence (Q9HCP0 whole entry): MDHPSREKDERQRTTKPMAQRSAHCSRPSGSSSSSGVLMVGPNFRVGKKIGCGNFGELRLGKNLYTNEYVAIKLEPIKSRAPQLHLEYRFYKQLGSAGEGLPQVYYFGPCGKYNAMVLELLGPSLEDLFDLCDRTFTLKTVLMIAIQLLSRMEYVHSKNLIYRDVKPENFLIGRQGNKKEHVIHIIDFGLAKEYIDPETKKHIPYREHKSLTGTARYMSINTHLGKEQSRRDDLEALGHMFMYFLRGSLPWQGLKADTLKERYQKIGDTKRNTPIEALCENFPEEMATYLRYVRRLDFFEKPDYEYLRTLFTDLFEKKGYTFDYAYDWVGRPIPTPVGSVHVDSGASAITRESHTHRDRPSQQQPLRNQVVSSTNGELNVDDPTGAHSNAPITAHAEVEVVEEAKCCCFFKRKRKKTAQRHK
# T43 sequence (P36888 27-993): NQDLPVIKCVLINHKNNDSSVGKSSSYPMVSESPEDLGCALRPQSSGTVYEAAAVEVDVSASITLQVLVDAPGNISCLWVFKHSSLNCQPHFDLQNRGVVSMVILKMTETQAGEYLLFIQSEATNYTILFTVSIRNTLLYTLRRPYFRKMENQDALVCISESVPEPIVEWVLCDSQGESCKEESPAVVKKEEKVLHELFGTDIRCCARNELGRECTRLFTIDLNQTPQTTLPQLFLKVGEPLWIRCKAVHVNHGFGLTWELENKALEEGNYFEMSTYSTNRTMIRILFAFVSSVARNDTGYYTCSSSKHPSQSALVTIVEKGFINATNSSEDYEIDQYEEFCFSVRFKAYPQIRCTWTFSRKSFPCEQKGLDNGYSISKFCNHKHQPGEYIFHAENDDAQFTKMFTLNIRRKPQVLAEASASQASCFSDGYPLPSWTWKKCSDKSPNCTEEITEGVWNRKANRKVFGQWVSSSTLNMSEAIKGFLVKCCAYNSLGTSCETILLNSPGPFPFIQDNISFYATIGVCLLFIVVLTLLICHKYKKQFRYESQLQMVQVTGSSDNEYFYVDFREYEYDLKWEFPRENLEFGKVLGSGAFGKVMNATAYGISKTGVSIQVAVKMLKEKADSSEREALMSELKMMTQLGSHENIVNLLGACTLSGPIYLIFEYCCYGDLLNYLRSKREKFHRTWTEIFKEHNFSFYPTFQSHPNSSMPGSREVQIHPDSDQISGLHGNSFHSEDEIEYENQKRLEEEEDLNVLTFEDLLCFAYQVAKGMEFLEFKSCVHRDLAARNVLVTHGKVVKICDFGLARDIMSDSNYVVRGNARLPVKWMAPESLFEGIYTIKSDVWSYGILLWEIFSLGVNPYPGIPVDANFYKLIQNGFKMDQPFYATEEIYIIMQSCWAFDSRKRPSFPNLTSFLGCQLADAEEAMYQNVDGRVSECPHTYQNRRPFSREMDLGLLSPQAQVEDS
# T14 sequence (P51451 whole entry): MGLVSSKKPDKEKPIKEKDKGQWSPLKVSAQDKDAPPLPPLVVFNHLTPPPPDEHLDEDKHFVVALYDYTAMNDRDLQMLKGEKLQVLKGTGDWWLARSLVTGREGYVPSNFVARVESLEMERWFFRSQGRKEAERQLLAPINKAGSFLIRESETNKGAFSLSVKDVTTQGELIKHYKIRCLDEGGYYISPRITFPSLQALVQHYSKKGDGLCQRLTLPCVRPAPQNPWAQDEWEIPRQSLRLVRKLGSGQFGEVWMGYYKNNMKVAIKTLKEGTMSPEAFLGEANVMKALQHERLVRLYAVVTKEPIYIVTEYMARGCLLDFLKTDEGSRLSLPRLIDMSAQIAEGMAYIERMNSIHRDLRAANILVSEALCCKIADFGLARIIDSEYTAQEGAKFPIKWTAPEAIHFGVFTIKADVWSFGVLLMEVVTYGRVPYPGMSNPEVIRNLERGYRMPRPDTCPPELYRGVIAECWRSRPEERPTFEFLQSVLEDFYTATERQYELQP
# T8 sequence (Q8IW41 whole entry): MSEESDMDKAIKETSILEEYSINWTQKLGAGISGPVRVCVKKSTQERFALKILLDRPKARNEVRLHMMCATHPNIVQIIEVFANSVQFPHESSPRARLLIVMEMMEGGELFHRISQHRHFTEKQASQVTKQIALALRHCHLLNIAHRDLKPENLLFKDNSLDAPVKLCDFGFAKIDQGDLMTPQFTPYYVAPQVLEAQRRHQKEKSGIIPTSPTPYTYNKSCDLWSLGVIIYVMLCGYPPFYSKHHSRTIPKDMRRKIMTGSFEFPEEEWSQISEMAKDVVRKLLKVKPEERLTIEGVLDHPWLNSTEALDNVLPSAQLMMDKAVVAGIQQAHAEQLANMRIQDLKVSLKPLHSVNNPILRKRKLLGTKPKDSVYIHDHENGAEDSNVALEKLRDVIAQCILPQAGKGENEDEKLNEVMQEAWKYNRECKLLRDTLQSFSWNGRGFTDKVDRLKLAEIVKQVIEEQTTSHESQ
# T5 sequence (P15056 whole entry): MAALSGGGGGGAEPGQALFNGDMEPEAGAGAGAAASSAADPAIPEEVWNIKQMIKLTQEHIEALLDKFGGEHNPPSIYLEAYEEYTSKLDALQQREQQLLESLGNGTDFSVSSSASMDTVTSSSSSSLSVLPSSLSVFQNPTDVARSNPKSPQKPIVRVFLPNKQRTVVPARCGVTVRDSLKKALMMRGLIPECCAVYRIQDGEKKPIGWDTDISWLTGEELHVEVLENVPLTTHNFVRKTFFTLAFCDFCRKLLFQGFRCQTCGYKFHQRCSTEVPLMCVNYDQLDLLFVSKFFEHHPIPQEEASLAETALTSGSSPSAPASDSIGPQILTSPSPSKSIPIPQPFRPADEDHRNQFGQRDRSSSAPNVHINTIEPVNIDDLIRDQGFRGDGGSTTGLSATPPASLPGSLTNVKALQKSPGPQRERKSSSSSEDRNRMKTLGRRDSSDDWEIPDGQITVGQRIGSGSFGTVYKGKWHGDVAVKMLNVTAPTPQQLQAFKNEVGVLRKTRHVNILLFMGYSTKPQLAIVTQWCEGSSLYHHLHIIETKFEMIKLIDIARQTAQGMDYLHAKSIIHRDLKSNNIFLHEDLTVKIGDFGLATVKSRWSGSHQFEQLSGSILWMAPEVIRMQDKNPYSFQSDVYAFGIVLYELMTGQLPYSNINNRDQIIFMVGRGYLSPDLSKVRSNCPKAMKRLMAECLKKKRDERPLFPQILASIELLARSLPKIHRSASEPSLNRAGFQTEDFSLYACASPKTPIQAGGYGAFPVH
compound,measurement,setting,value
"CCn1cnc2c(NCc3ccc(-c4ccccn4)nc3)nc(-c3ccc(N)nc3)nc21 [Compound 30d, N-([2,2′-Bipyridin]-5-ylmethyl)-2-(6-aminopyridin-3-yl)-9-ethyl-9H-purin-6-amine]",remaining activity at 10 µM,[1],102%
same,remaining activity at 10 µM,[2],115%
same,remaining activity at 10 µM,[3],96.3%
same,remaining activity at 10 µM,[4],103%
same,remaining activity at 10 µM,[5],60.8%
same,remaining activity at 10 µM,[6],10.2%
same,remaining activity at 10 µM,[7],80.1%
same,remaining activity at 10 µM,[8],103%
same,remaining activity at 10 µM,[9],42.3%
same,remaining activity at 10 µM,[10],96.8%
same,remaining activity at 10 µM,[11],85.3%
same,inhibition at 10 µM,[12],> 95%
same,remaining activity at 10 µM,[12],3.3%
same,remaining activity at 10 µM,[13],83.7%
same,remaining activity at 10 µM,[14],66.8%
same,remaining activity at 10 µM,[15],94.3%
same,remaining activity at 10 µM,[16],60.7%
same,remaining activity at 10 µM,[17],87%
same,remaining activity at 10 µM,[18],84.1%
same,remaining activity at 10 µM,[19],98.2%
same,remaining activity at 10 µM,[20],23.1%
same,remaining activity at 10 µM,[21],74.2%
same,remaining activity at 10 µM,[22],29.8%
same,remaining activity at 10 µM,[23],48.7%
same,remaining activity at 10 µM,[24],86.8%
same,remaining activity at 10 µM,[25],88.4%
same,remaining activity at 10 µM,[26],101%
same,remaining activity at 10 µM,[27],81.7%
same,remaining activity at 10 µM,[28],87%
same,remaining activity at 10 µM,[29],24.2%
same,remaining activity at 10 µM,[30],64%
same,remaining activity at 10 µM,[31],81.3%
same,remaining activity at 10 µM,[32],67.8%
same,remaining activity at 10 µM,[33],81.6%
same,remaining activity at 10 µM,[34],141%
same,remaining activity at 10 µM,[35],94.5%
same,remaining activity at 10 µM,[36],83.7%
same,remaining activity at 10 µM,[37],11.7%
same,remaining activity at 10 µM,[38],86.6%
same,remaining activity at 10 µM,[39],94.1%
same,remaining activity at 10 µM,[40],33.7%
same,remaining activity at 10 µM,[41],52.5%
same,remaining activity at 10 µM,[42],64.7%
same,remaining activity at 10 µM,[43],40.2%
same,remaining activity at 10 µM,[44],30.6%
